Tested on: S. epidermidis
Test: Antimicrobial activity on fabric (washed cotton swatches)
Type: cell-based
Conditions: in model detergent (0.6 g/L Na-LAS, 1.2 g/L Soda, 0.9 g/L NaCl), CPC 0.02 g/L or equivalent amount of particle, cotton swatches soaked, rinsed three times
Protocol: Cotton swatches having dimension 4×4 cm were used in this example. The swatches were soaked in respective compositions as given below for 30 minutes and then washed for 30 minutes in a shaker bath. After that the swatches were rinsed three times with deionized water in a shaker bath. The liquid to cloth ration were maintained at 20 during the washing and rinsing step.

`CCCCCCCCCCCCCCCC[n+]1ccccc1` [CPC, Cetylpyridinium chloride] was tested. Which Log reduction did it give?
Its Log reduction is 1.99.

Reference: patent US20120177712A1, “ANTIMICROBIAL PARTICLE AND A PROCESS FOR PREPARING THE SAME” (priority 2009, published 2012)
